Patent US11064704B2, “Natural product formulations with improved residual insect repellent/deterrent activity” (University of Mississippi, priority 2016, dated 2021)

Assays:
[1] = system: Aedes aegypti; experiment: in vitro Klun and Debboun (K&D) biting deterrent bioassay; format: in vivo
Description: Experiments were conducted by using a six-celled in vitro Klun and Debboun (K&D) module bioassay system developed by Klun et al. (2005) for quantitative evaluation of biting deterrence. Briefly, the assay system consists of a six well reservoir with each of the 3×4 cm wells containing 6 mL of blood or feeding solution. As described by Ali et al. (2012), a feeding solution consisting of CPDA-1 and ATP was used instead of blood. Green fluorescent tracer dye (www.blacklightworld.com) was used to determine the feeding by the females. Carrot seed essential oil was initially tested to determine the biting deterrent activity. […] Essential oil and carotol were further tested against Ae. aegypti and An. quadrimaculatus in this bioassay. Treatments of carrot seed essential oil at 10 μg/cm^2 and carotol were tested at 10 and 5 μg/cm^2, whereas DEET (97% N,N-diethyl-meta-toluamide) (Sigma Aldrich, St. Louis, Mo.) at 25 nmol/cm^2 was used as positive control. All the treatments were freshly prepared in molecular biology grade 100% ethanol (Fisher Scientific Chemical Co. Fairlawn, N.J.) at the time of bioassay.
The temperature of the solution in the reservoirs was maintained at 37° C. by continuously passing warm water through the reservoir using a circulatory bath. The reservoirs were covered with a layer of collagen membrane (Devro, Sandy Run, S.C.). The test compounds were randomly applied to six 4×5 cm areas of organdy cloth and positioned over the membrane-covered CPDA-1+ATP solution with a Teflon® separator placed between the treated cloth and the six-celled module to prevent the contamination of the module. A six-celled K&D module containing five female mosquitoes per cell was positioned over cloth treatments covering the six CPDA-1+ATP solution membrane wells, and trap doors were opened to expose the treatments to these females. The number of mosquitoes biting through organdy treatments in each cell was recorded after a 3 minute exposure, and mosquitoes were prodded back into the cells to check the actual feeding. Mosquitoes were squashed and the presence of green fluorescent tracer dye (or not) in the gut was used as an indicator of feeding. A replicate consisted of six treatments: four test compounds, DEET (a standard biting deterrent) and ethanol-treated organdy as solvent control applied randomly. Sets of 5 replications each with 5 females per treatment were conducted on 2-3 different days using newly-treated organdy and a new batch of females in each replication. Treatments were replicated 10-15 times. Proportion not biting (PNB) was calculated using the procedure described by Ali et al. (2012).

[2] = system: Aedes albopictus females; experiment: in vivo cloth patch repellent bioassay
Description: (§1) Cloth patch bioassays were conducted by using in vivo bioassay system described by Katritzky et al. (2008, 2010), with minor modifications. Approximately 500 (±5%) mosquitoes, consisting primarily of females, were transferred into a test cage (45×45×45 cm) using an aspirator. A series of dosages of test compounds were tested to determine MED for repellency of the mosquitoes. MED refers to a concentration of the compound at which biting is less than or equal to 1% (i.e. less than or equal to 5 out of 500 females in the cage) during a 1 minute exposure time. A series of concentrations ranging between 6.25 to 100 μg/cm^2 were tested in the A&K bioassay.
(§2) A single test consisted of covering the hand of a volunteer with a soft-embossed long cuff poly glove (Atlantis Products, Mankato, Minn.), then by a powder-free latex glove (Diamond Grip, Microflex Corporation, Reno, Nev.). The arm was then covered with a knee high stocking (Leggs® Everyday Knee Highs, Winston-Salem N.C. 27102) to avoid the contact of treated muslin cloth with the skin. A plastic sleeve constructed of polyvinyl was then placed around the arm. Velcro strips were used to fix the plastic sleeve around the arm. About half-way between the wrist and elbow, a 4×7.5 cm slit in the plastic sleeve was used to assess mosquito landing and biting behavior. This opening permitted the attractive odors from the skin surface to emanate out and attract mosquitoes through this opening. During testing, this 30 cm^2 open area was covered with a piece of treated muslin cloth. Because of constraint of man power, only one volunteer who was provided written informed consent participated in this study. A protocol approved by the University of Mississippi Human Use Institutional Review Board (IRB protocol #15-070) was followed.
(§3) Stock solutions with concentration of 80 μg/ul were prepared in ethanol. Concentrations ranging between 6.25 to 100 μg/cm^2 were selected for testing based on previous experience of the inventors with the A&K bioassay. A piece of muslin cloth measuring 8×13 cm in size was used. An area of 4×7.5 cm was marked in the center of muslin cloth. Approximately 2.5×7 cm pieces of cardboard were attached by staples on the sides of the muslin cloth. Treatments were applied to the marked area of the cloth in 215 μL volume using a pipetter. After drying, the treated muslin cloth was secured on the opening of the plastic sleeve by using an adhesive tape.
(§4) The test started when the arm with sleeve and treated muslin cloth was inserted into the mosquito cage. […] Residual activity was determined by exposing the females to the treated muslin cloth at an interval of 30 minutes. The treated muslin patch was kept on the arm after the initial treatment and tested every half an hour thereafter.
(§5) Testing started at the highest dose (100 μg/cm^2) and the dose was lowered to reach the MED. Because the mosquitoes show reduced behavioral activity upon repeated exposure to repellent odors from the arm, after 5 successive exposures of the treatments, the caged mosquitoes were allowed a 15 min recovery period.

[3] = system: Aedes aegypti females; experiment: in vivo cloth patch repellent bioassay; conditions: for residual repellent activity: time post treatment at which activity lost: 12.5 μg/cm^2; for minimum effective dose (MED): cloth patch, 1 minute exposure
Description: as §1, §2, §3, §4, §5

[4] = system: Anopheles quadrimaculatus females; experiment: in vivo cloth patch repellent bioassay
Description: as §1, §2, §3, §4, §5

Row | Compound | proportion not biting (PNB) ([1]; 25 nmol/cm^2) | minimum effective dose (MED) [2] | residual repellent activity: time post treatment at which activity lost [3] | minimum effective dose (MED) [3] | minimum effective dose (MED) [4] | proportion not biting (PNB) ([1]; 5 μg/cm^2) | proportion not biting (PNB) ([1]; 10 μg/cm^2) | biting deterrent activity ([1]; compared with DEET) | residual repellent activity like DEET: time post treatment up to ([3]; 25 μg/cm^2) | residual repellent activity like DEET: time post treatment up to ([3]; 50 μg/cm^2)
1 | CCN(CC)C(=O)c1cccc(C)c1 [DEET, N,N-diethyl-meta-toluamide, reference compound] | 0.85 | 12.5 μg/cm^2 | 30 min | 12.5 μg/cm^2 | 6.25 μg/cm^2 | – | – | – | – | –
2 | CC1=CC[C@]2(C)CC[C@@H](C(C)C)[C@]2(O)CC1 [carotol] | – | 12.5 μg/cm^2 | failed | 25 μg/cm^2 | 6.25 μg/cm^2 | 0.66 | 0.9 | comparable to DEET | 120 min | 120 min
